Results published in publication PMC5441580, “GPR40 partial agonist MK-2305 lower fasting glucose in the Goto Kakizaki rat via suppression of endogenous glucose production” (PLoS ONE, 2017).
Where “and” joins values, the source holds several entries; their conditions need not be identical. Equal entries are not always repeated.

Experiments:
[1] = plasma exposure of the compounds on day 14 of the chronic study; format: in vivo, rat; conditions: day 14, similar at fed and fasted time points, GK rats
Experimental: At the start of the study, fed glucose was measured at 8 A.M., and animals were selected and sorted into treatment groups based on ambient glucose (n = 10/male GK group, n = 6/male WKY control group). Animals were then placed on diet (LabDiet # 5001) that contained, or was devoid of, compound at the daily doses indicated. Fed blood glucose, food intake, and body weights were determined on days 0, 1, 3, 7, and 14 of study at 8 A.M. On days 7 and 14, food was removed for 5 h and plasma glucose was measured. Percent inhibitions were calculated as the percent reduction of blood glucose from the average value for vehicle controls. On day 14, blood was collected from the tail vein (20 μl) after the morning glucose measurement and after 5 h fast from a subset of n = 3 rats per treatment group to determine the ambient and fasted exposure of the compounds in circulation. The blood was stored at 4°C in 0.1 M sodium monocitrate for subsequent analysis. Animals were then re-fed their respective diet treatments. On day 20 of treatment at 8 A.M., blood glucose was measured and then animals were euthanized via CO2 asphyxiation. Blood and liver tissue were sampled, processed, and stored at -80°C until analysis.

GK rats = test: endogenous glucose production in vivo, 2H/13C dual tracer, acute treatment, GK rats; parameters: species or system rat
Experimental: To evaluate whether MK-2305 treatment produced an effect on EGP in vivo, a ^2H/^13C dual tracer approach was used to calculate EGP and its contributing sources. On the day of the study, GK rats were bled via tail snip, and blood glucose was measured via glucometer. Ambient glucose was measured at 8 A.M. and used to sort animals into treatment groups (n = 8 per group). 0.9% NaCl salinated D2O (Sigma-Aldrich, St. Louis, MO) was administered to all animals via IP injection at dose volume of 20 ml/kg. Animals were then placed in clean cages and food was removed. After a 5 hour fast, blood glucose was measured and animals were dosed PO with MK-2305 at 10 mg/kg (5 ml/kg) or vehicle (0.5% methylcellulose) immediately followed by 50 mg/kg [U-^13C] glucose (Sigma-Aldrich) IP at 5 ml/kg. Blood was collected via tail snip at time points from 60–150 min post treatment to measure blood glucose as well as endogenous (^12C-glucose) and exogenous (^13C-glucose) via GCMS. Following the last tail blood collection, rats were anesthetized with isoflurane and cardiac blood was collected into K2EDTA tubes (Becton, Dickinson and Co., Franklin Lakes, NJ).
The serially collected blood samples were analyzed for ^13C-glucose enrichment using GC-MS analysis. The % ^13C glucose enrichments were then combined with the total glucose readings to calculate the concentration of ^13C-glucose, and these values were modeled with a two-compartment model of whole body glucose metabolism to calculate the average EGP for the period from 0–150 minutes.
Terminal blood samples were analyzed for relative ^2H enrichment in plasma glucose using the monoacetone glucose method. Briefly, samples were extracted with 70% perchloric acid and centrifuged at 25,000 rcf for 10 min at 4°C. The supernatant was collected and the pH was adjusted to 6–8 using KOH. The samples were then lyophilized overnight. To convert plasma glucose to monoacetone glucose (MAG), acetone and concentrated sulfuric acid were added to the lyophilized samples and stirred for 4 hours at room temperature. Water was then added and the pH adjusted to 2.0 with 3M Na2CO3. Samples were stirred moderately for 18 hours at room temperature, the pH was adjusted to 7 with 3M Na2CO3, and the samples were completely dried by speed vacuum concentration. The resulting MAG samples were then extracted in hot ethyl acetate, dried overnight under a stream of N2 gas, purified using Discovery DSC-18 SPE columns (6 ml, 1 g bed weight), and freeze dried. Purified MAG samples were solubilized in 180 μl 90% acetonitrile for ^2H NMR analysis which was performed using the lock channel of a 950 MHz Bruker NMR spectrometer (David H Murdock Research Institute, Kannapolis, NC). Acquisition parameters were as follows: 90° pulse, D1 = 1 s, ^1H broadband decoupling, NS = 3600 averages, acquisition time ~ 1 hr. The ^2H NMR spectra of the MAG samples were then analyzed using in–house developed Matlab (The Mathworks Inc, Natick, MA) to model the NMR peaks with a Lorentzian line shape, and the results were used to calculate integrals for each of the seven NMR resonances in the MAG spectrum. Peaks 2, 5, and 6s were then used to calculate the relative sources of EGP (i.e. gluconeogenesis from TCA cycle substrates, gluconeogenesis from triose phosphates, and glycogenolysis) and these values were combined with the total EGP measurement to calculate absolute fluxes of glucose production.

[2] = system: pancreatic islets of Langerhans from wild-type mice; test: glucose stimulated insulin secretion (GSIS), isolated wild-type islets; format: cell-based, mouse; conditions: WT islets; for secreted insulin per islet: 10 uM compound, 60 min, individual wells
Experimental: Pancreatic islets of Langerhans were isolated from wild-type and GPR40−/− mice (littermates) by collagenase digestion and discontinuous Ficoll gradient separation. […] Insulin secretion was determined by a 1 hr static incubation in Krebs-Ringer bicarbonate (KRB) buffer in a 96-well format as previously described. Briefly, islets were first preincubated in KRB medium with 2 mmol/l glucose for 30 min and were then transferred to a 96-well plate (three islets/well) and incubated with 200 μl of the KRB medium with 2 or 15 mmol/l glucose in the presence or absence of testing compounds for 60 min. The buffer was removed from the wells at the end of the incubation and assayed for insulin levels using the Ultrasensitive Rat Insulin ELISA kit (ALPCO, Salem, NH). All insulin secretion data were normalized by total islet numbers (ex: three islets/well), so the unit is secreted insulin (ng/ml) per islet.

[3] = acute treatment, 10 mg/kg, individual animals

O=C1NC(=O)C(C2CCOc3cc(Oc4ccc(C(F)(F)F)cc4Cl)ccc32)S1 (stereo not shown) [MK-2305]
plasma exposure ([1]; 10 mg/kg in feed): ~ 15 μM | plasma exposure ([1]; 30 mg/kg in feed): ~ 39 μM | Glucose Production, GNG Glycerol (GK rats; [3]): 3.608 µmol/kg/min and 6.69 µmol/kg/min and 9.73 µmol/kg/min and 6.819 µmol/kg/min and 7.18 µmol/kg/min and 7.314 µmol/kg/min | Glucose Production, GNG TCA (GK rats; [3]): 22.6827 µmol/kg/min and 24.6101 µmol/kg/min and 42.0826 µmol/kg/min and 20.0832 µmol/kg/min and 26.1824 µmol/kg/min and 20.2011 µmol/kg/min | Glucose Production, GNG Total (GK rats; [3]): 26.2902 µmol/kg/min and 31.3005 µmol/kg/min and 51.8129 µmol/kg/min and 26.902 µmol/kg/min and 33.3626 µmol/kg/min and 27.5151 µmol/kg/min | Glucose Production, Glycogenolysis (GK rats; [3]): 12.8051 µmol/kg/min and 15.6084 µmol/kg/min and 16.1238 µmol/kg/min and 13.6282 µmol/kg/min and 9.977 µmol/kg/min and 16.0296 µmol/kg/min | effect on EGP derived from glycogenolysis (GK rats; acute, 10 mg/kg PO): did not acutely affect | EGP from gluconeogenic substrates entering as triose phosphates (GK rats; acute, 10 mg/kg PO, mean ± SEM, vehicle 8.82 ± 0.81, p < 0.05): 6.90 ± 0.80 µmol/kg/min | EGP from gluconeogenic substrates entering at the TCA cycle (GK rats; acute, 10 mg/kg PO, mean ± SEM, vehicle 43.2 ± 4.17, p < 0.01): 26.0 ± 3.36 µmol/kg/min | total EGP (GK rats; acute, 10 mg/kg PO, mean ± SEM, vehicle 52.0 ± 4.82, p < 0.05): 32.9 ± 3.95 µmol/kg/min | secreted insulin per islet ([2]; 2mM glucose): 0.6472 ng/ml per islet and 0.4249 ng/ml per islet and 0.7026 ng/ml per islet and 0.678 ng/ml per islet and 0.4061 ng/ml per islet and 0.594 ng/ml per islet and 0.652 ng/ml per islet and 0.541 ng/ml per islet | secreted insulin per islet ([2]; 15 mM Glucose): 5.982 ng/ml per islet and 3.69 ng/ml per islet and 4.728 ng/ml per islet and 4.578 ng/ml per islet and 5.448 ng/ml per islet and 3.948 ng/ml per islet and 4.236 ng/ml per islet and 5.162 ng/ml per islet | effect on GSIS ([2]; high (15 mM) but not basal (2 mM) glucose): acutely stimulate GSIS
